ChEMBL document CHEMBL5150053, “Carboxymethyl tethered poly(disubstituted)triazoles built on nucleoside skeletons: A unique class of ribonuclease A inhibitors designed using chemical logic” (Bioorg Med Chem, 2022)
Active and inactive are the calls of the source. No cut-off for these calls is given here.

Tests used:
[1] = Competitive reversible inhibition of bovine pancreatic RNase A using 2',3'-cCMP as substrate assessed as inhibition constant by spectrophotometric analysis; set-up: species or system Bos taurus
[2] = species: Bos taurus; test: Inhibition of bovine pancreatic RNase A using tRNA as substrate assessed as substrate degradation preincubated with compound for 3 hrs followed by substrate addition and measured after 30 mins by ethidium bromide staining based agarose gel electrophoresis analysis; details: time 3.5 hrs
[3] = Competitive inhibition of bovine pancreatic RNase A using 2',3'-cCMP as substrate assessed as inhibition constant by spectrophotometric analysis; set-up: species or system Bos taurus
[4] = Uncompetitive inhibition of bovine pancreatic RNase A using 2',3'-cCMP as substrate assessed as inhibition constant by spectrophotometric analysis; set-up: species or system Bos taurus
[5] = species: Bos taurus; test: Uncompetitive inhibition of bovine pancreatic RNase A using 2',3'-cCMP as substrate assessed as Michaelis-Menten constant (Km) by Lineweaver-burk plot analysis (reference value: 9.35 x 10^-4 M)
[6] = Linear mixed type inhibition of bovine pancreatic RNase A using 2',3'-cCMP as substrate assessed as inhibition constant by spectrophotometric analysis; set-up: species or system Bos taurus
[7] = Hyperbolic partial competitive inhibition of bovine pancreatic RNase A using 2',3'-cCMP as substrate assessed as inhibition constant by spectrophotometric analysis; set-up: species or system Bos taurus

| SMILES | Ki [1] [µM] | inhibition [2] | Ki [3] [µM] | other results |
| --- | --- | --- | --- | --- |
| O=S(=O)(O)CCn1cc(CO[C@@H]2O[C@H](Cn3cc(CS(=O)(=O)O)nn3)[C@@H](O)[C@H]2O)nn1 | 29 | – | – | – |
| O=C(O)Cn1cc(COC[C@H]2O[C@@H](n3ccc(=O)n(Cc4cn(CC(=O)O)nn4)c3=O)[C@H](O)[C@@H]2O)nn1 | – | Active | 198 | – |
| Cc1cn([C@H]2C[C@H](OCc3cn(CC(=O)O)nn3)[C@@H](CO)O2)c(=O)n(Cc2cn(CC(=O)O)nn2)c1=O | – | Active | 352 | – |
| Nc1ccn([C@@H]2O[C@H](CO)[C@@H](S(=O)(=O)CC(=O)O)[C@H]2O)c(=O)n1 | 1.75 | – | – | – |
| Cc1cn([C@H]2C[C@H](O)[C@@H](CO)O2)c(=O)n(Cc2cn(CC(=O)O)nn2)c1=O | – | Active | – | Ki [4]: 232 µM; Km [5]: 585 µM |
| O=C(O)c1nnn(C[C@H]2O[C@@H](OCc3cn(CCS(=O)(=O)O)nn3)[C@H](O)[C@@H]2O)c1C(=O)O | 46 | – | – | – |
| O=C(O)Cn1cc(COC[C@H]2O[C@@H](n3ccc(=O)n(Cc4cn(CC(=O)O)nn4)c3=O)[C@H](OCc3cn(CC(=O)O)nn3)[C@@H]2OCc2cn(CC(=O)O)nn2)nn1 | – | Active | 74.1 | – |
| O=c1ccn([C@@H]2O[C@H](CO)[C@@H](S(=O)(=O)O)[C@@H]2O)c(=O)[nH]1 | 0.96 | – | – | – |
| Cc1cn([C@H]2C[C@H](S(=O)(=O)O)[C@@H](CO)O2)c(=O)[nH]c1=O | 2.08 | – | – | – |
| O=C(O)CS(=O)(=O)[C@H]1[C@@H](O)[C@H](n2ccc(=O)[nH]c2=O)O[C@@H]1CO | 2 | – | – | – |
| Cc1cn([C@H]2C[C@H](OCc3cn(CC(=O)O)nn3)[C@@H](COCc3cn(CC(=O)O)nn3)O2)c(=O)[nH]c1=O | – | Active | – | Ki [6]: 211 µM |
| O=C(O)Cn1cc(Cn2c(=O)ccn([C@@H]3O[C@H](CO)[C@@H](O)[C@H]3O)c2=O)nn1 | – | Active | 55.4 | – |
| Cc1cn([C@H]2C[C@H](OCc3cn(CC(=O)O)nn3)[C@@H](COCc3cn(CC(=O)O)nn3)O2)c(=O)n(Cc2cn(CC(=O)O)nn2)c1=O | – | Active | – | Ki [7]: 2.3 µM |
